# Test results from publication PMC12592420, “A mismatch in enzyme-redox partnerships underlies divergent cytochrome P450 activities between human hepatocytes and microsomes” (Communications Biology, 2025).
# “And” between values parts separate entries of the source, which are not always exact repeats. Identical values can stand only once.
# Experiments:
# human hepatocytes (HH) = test: in vitro; conditions: for HH_CLint: single determination; for HH_CLint / HH_scaled_CLint,u: Fig. 4a
# Protocol: (§1) Cryopreserved HH prepared from a mixed-gender pool of twenty donors (product X008000, lot EEO, BIOIVT), ten-donors (product S01205, lot MTJ, BIOIVT), ten donors (product S01205 lot LYB, BIOIVT) were utilised in the experiments. Cryopreserved HH were rapidly thawed in a water bath set at 37 °C and added to Leibovitz media that had been pre-warmed in the water bath. The suspension of cells was mixed gently and centrifuged at 40 × g for 4 min at room temperature. Excess media was removed, and the cells were re-suspended in 5 mL of fresh Leibovitz media. The cells were counted using an automated cell counter (Cellometer).
# rat hepatocytes = test: Free fraction in rat hepatocytes as surrogate for HH, equilibrium dialysis; type: in vitro ADME; conditions: fraction unbound, measured or estimated by in silico models of Fuinc
# [1] = Free fraction in HLM incubation, equilibrium dialysis; type: in vitro ADME, human; conditions: fraction unbound, measured or estimated by in silico models of Fuinc
# [2] = CLint in NADPH-supplemented human liver microsomes; conditions: for microsomal CLint at 1 µM / CLint scaled at 1 µM: human; for HLM/HH (ratio of scaled CLint,u): NADPH-HLM average over HH average
# Protocol: (§2) Calculation and scaling of CLint,u was done using the equation below and 45 mg of microsomal protein per gram of liver. HLMCLint,u=ln2/x1/t1/2(min)xmLincubation/mgmicrosomalproteinx45mgmicrosomalprotein/gliverx21gliver/kg/Fuinc
# [3] = LogD pH 7.4, octanol/phosphate buffer; conditions: for LogD pH 7.4: at least one determination; for logD: octanol/phosphate buffer, pH 7.4
# Caco-2 cells = test: Intrinsic permeability in Caco-2 cells with efflux inhibited; conditions: intrinsic (passive) permeability, at least one determination
# in vitro [4] = conditions: human, hepatocytes; for hepatocyte CLint: both
# Protocol: as §1
# in vitro [5] = conditions: human, Caco-2
# [6] = CLint in NADH-supplemented human liver microsomes; conditions: for microsomal CLint at 1 µM / CLint scaled at 1 µM: human
# Protocol: as §2
# POR = POR for cofactor; cited from earlier work
# Cytb5R = Cytb5R for cofactor; cited from earlier work
# [7] = Intrinsic permeability in Caco-2 cells with efflux inhibited; conditions: human, Caco-2
# CYP1A2-Cytb5R = biological target: T1, CYP1A2-Cytb5R (Homo sapiens, UniProt P05177); test: Turnover by non-canonical recombinant CYP1A2-Cytb5R; type: in vitro ADME; conditions: noncanonical CYP1A2-Cytb5R
# T1 construct: purchased BioIVT (custom synthesis) CE00001 (CYP1A2), batch CPD034-1A2-30; host or cells: bactosomes
# T1 sequence (P05177 1-516): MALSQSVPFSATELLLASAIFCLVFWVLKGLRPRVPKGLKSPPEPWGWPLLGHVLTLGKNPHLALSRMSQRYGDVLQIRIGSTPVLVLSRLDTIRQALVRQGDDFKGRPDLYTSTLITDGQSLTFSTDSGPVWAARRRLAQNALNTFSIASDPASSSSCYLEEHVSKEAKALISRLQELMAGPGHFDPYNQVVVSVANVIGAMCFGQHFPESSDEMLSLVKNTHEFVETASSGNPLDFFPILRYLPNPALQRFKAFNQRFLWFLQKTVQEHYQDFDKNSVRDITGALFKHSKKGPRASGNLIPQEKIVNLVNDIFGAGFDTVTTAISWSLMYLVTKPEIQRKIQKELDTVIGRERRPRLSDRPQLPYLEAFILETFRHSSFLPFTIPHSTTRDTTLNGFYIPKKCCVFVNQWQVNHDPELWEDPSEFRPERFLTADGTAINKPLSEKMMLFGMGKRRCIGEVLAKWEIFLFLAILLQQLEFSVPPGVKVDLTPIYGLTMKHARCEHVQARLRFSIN
# Description: As commercial recombinant human CYPs co-express the individual CYP and reductase with an option to include cytochrome b5. A custom synthesis co-expressing CYP3A4 or CYP1A2 and Cytb5R plus cytochrome b5 was, therefore, ordered from BioIVT and the bactosomes were compared with canonical CYP-POR enzymes plus cytochrome b5.
# [8] = 1 µM, single determination, Fig. 4a,d
# [9] = HH_CLint, 1 µM, single determination, Fig. 4a
# [10] = HH, individual determinations 1-3, Fig. 1
# [11] = Scaled HH CLint,u average, HH, average, Fig. 1
# [12] = Scaled HH CLint,u, HH, individual determinations 1-3, Fig. 1
# [13] = NADPH-HLM, individual determinations 1-3, Fig. 1
# [14] = human liver microsomes + NADPH, pH 7.4, Scaled HLM CLint,u, NADPH-HLM, individual determinations 1-3, Fig. 1
# [15] = human liver microsomes, pH 7.4, Scaled HLM CLint,u average, NADPH-HLM, average, Fig. 1
molecule,measurement,setting,value
CCN(C(=O)c1cc(F)ccc1Oc1nncnc1N1CCC2(C1)CN([C@H](CCCN(C)CCOC)C(C)C)C2)C(C)C [Bleximenib],HH_CLint,human hepatocytes (HH); 1 µM,1.166 uL/min/106 cells
same,"HH_scaled_CLint,u",human hepatocytes (HH),3.701 mL/min/kg
same,fu_ratHH,rat hepatocytes,0.794
same,fu_HLM,[1],0.721
same,HLM_NADPH CLint,[2]; [8],34.3 µL/min/mg
same,"NADPH_HLM_scaled_CLint,u","[2]; Fig. 4a,d",44.9563 mL/min/kg
same,LogD pH 7.4,[3],0.74
same,Caco-2 Papp,Caco-2 cells,0.575 10-6 cm/s
O=C1Nc2ccc(Cl)cc2C(c2ccccc2Cl)=NC1O (stereo not drawn) [Lorazepam],hepatocyte CLint,in vitro [4]; [9],2.77 µL/min/1e6 cells
same,CLint scaled,"in vitro [4]; HH_scaled_CLint,u, Fig. 4a",9.63 mL/min/kg
same,fu_ratHH,rat hepatocytes,0.724
same,Papp,in vitro [5],67.2 ×10⁻⁶ cm/s
same,fu_HLM,[1],0.724
same,microsomal CLint at 1 µM,"[2]; microsomes, pH 7.4, HLM_NADPH CLint, 1 µM, single determination, Fig. 4a,d",4.99 µL/min/mg
same,CLint scaled at 1 µM,"[2]; microsomes, pH 7.4, NADPH_HLM_scaled_CLint,u, Fig. 4a,d",6.51 mL/min/kg
same,microsomal CLint at 1 µM,"[6]; microsomes, pH 7.4, HLM_NADH CLint, 1 µM, single determination, Fig. 4a,d",3 µL/min/mg
same,CLint scaled at 1 µM,"[6]; microsomes, pH 7.4, NADH_HLM_scaled_CLint,u, Fig. 4a,d",3.92 mL/min/kg
NC(=O)C1=CN([C@@H]2O[C@H](COP(=O)(O)OP(=O)(O)OC[C@H]3O[C@@H](n4cnc5c(N)ncnc54)[C@H](O)[C@@H]3O)[C@@H](O)[C@H]2O)C=CC1 [NADH],Km,POR,48000 µM
same,Km,Cytb5R,6 µM
NC(=O)C1=CN([C@@H]2O[C@H](COP(=O)(O)OP(=O)(O)OC[C@H]3O[C@@H](n4cnc5c(N)ncnc54)[C@H](OP(=O)(O)O)[C@@H]3O)[C@@H](O)[C@H]2O)C=CC1 [NADPH],Km,POR,2 to 15 µM
same,Km,Cytb5R,1000 µM
CCOc1ccc(NC(C)=O)cc1 [Phenacetin],hepatocyte CLint,in vitro [4],7.38 µL/min/1e6 cells
same,CLint scaled,"in vitro [4]; HH_scaled_CLint,u, Fig. 4a",19.5 mL/min/kg
same,fu_ratHH,rat hepatocytes,0.955
same,fu_HLM,[1],0.948
same,microsomal CLint at 1 µM,"[2]; human liver microsomes + NADPH, pH 7.4",24.5 µL/min/mg
same,CLint scaled at 1 µM,"[2]; human liver microsomes, pH 7.4, NADPH_HLM_scaled_CLint,u, Fig. 4a,d",24.4 mL/min/kg
same,logD,[3],1.48
same,microsomal CLint at 1 µM,"[6]; human liver microsomes + NADH, pH 7.4",5.68 µL/min/mg
same,CLint scaled at 1 µM,"[6]; human liver microsomes, pH 7.4",5.66 mL/min/kg
same,"Papp at 2 h, 10 µM",[7],76.1 ×10⁻⁶ cm/s
same,turnover (metabolite formation or disappearance of parent),CYP1A2-Cytb5R,no detectable turnover
C[C@]12C=CC(=O)C=C1CC[C@@H]1[C@@H]2[C@@H](O)C[C@@]2(C)[C@H]1CC[C@]2(O)C(=O)CO [Prednisolone],"Scaled HH CLint,u",human hepatocytes (HH); [10],12.4648 mL/min/kg and 14.0629 mL/min/kg
same,CLint scaled,in vitro [4]; [11],13.7 mL/min/kg
same,CLint scaled,in vitro [4]; [12],14.7 mL/min/kg
same,"HLM/HH (ratio of scaled CLint,u)",[2]; Fig. 1,2.917
same,"Scaled HLM CLint,u",[2]; [13],38.7639 mL/min/kg
same,CLint scaled at 1 µM,[2]; [14],40.8 mL/min/kg
same,CLint scaled at 1 µM,[2]; [15],40.1 mL/min/kg
C[C@]12C=CC(=O)C=C1CC[C@@H]1[C@@H]2C(=O)C[C@@]2(C)[C@H]1CC[C@]2(O)C(=O)CO [Prednisone],"Scaled HH CLint,u",human hepatocytes (HH); [10],43.6458 mL/min/kg and 52.3108 mL/min/kg
same,CLint scaled,in vitro [4]; [11],56.3 mL/min/kg
same,CLint scaled,in vitro [4]; [12],72.8 mL/min/kg
same,"HLM/HH (ratio of scaled CLint,u)",[2]; Fig. 1,0.4866
same,"Scaled HLM CLint,u",[2]; [13],26.9421 mL/min/kg and 25.4228 mL/min/kg
same,CLint scaled at 1 µM,[2]; [14],29.8 mL/min/kg
same,CLint scaled at 1 µM,[2]; [15],27.4 mL/min/kg
C[C@]12CC[C@H]3[C@@H](CCC4=CC(=O)CC[C@@]43C)[C@@H]1CC[C@@H]2O [Testosterone],"Scaled HH CLint,u",human hepatocytes (HH); [10],1005.17 mL/min/kg and 1161.02 mL/min/kg
same,CLint scaled,in vitro [4]; [11],1320 mL/min/kg
same,CLint scaled,in vitro [4]; [12],1780 mL/min/kg
same,"Scaled HLM CLint,u",[2]; [13],250.062 mL/min/kg and 237.027 mL/min/kg
same,CLint scaled at 1 µM,"[2]; microsomes, pH 7.4, Scaled HLM CLint,u average, NADPH-HLM, average, Fig. 1",246 mL/min/kg
same,CLint scaled at 1 µM,"[2]; microsomes, pH 7.4, Scaled HLM CLint,u, NADPH-HLM, individual determinations 1-3, Fig. 1",251 mL/min/kg
CCC1=C[C@@H]2CN(C1)Cc1c([nH]c3ccccc13)[C@@](C(=O)OC)(c1cc3c(cc1OC)N(C)[C@H]1[C@@](O)(C(=O)OC)[C@H](OC(C)=O)[C@]4(CC)C=CCN5CC[C@]31[C@@H]54)C2 [Vinorelbin],"Scaled HH CLint,u","human hepatocytes (HH); human, hepatocytes, 1 µM",48.4191 mL/min/kg
same,CLint scaled at 1 µM,"in vitro [4]; Scaled HH CLint,u",38.9 mL/min/kg
same,CLint scaled at 1 µM,"in vitro [4]; Scaled HH CLint,u average",43.6 mL/min/kg
same,"HLM/HH (ratio of scaled CLint,u)",[2]; Fig. 1,13.7107
same,"Scaled HLM CLint,u",[2]; [13],640.935 mL/min/kg and 717.808 mL/min/kg
same,CLint scaled at 1 µM,[2]; [14],436 mL/min/kg
same,CLint scaled at 1 µM,[2]; [15],598 mL/min/kg
CC[C@@H]1[C@H](F)C(=O)N[C@@H]1COc1nccc2cc(C(N)=O)c(OC)cc12 [Zimlovisertib],hepatocyte CLint,in vitro [4]; [9],5.84 µL/min/1e6 cells
same,CLint scaled,"in vitro [4]; HH_scaled_CLint,u, Fig. 4a",18 mL/min/kg
same,fu_ratHH,rat hepatocytes,0.817
same,fu_HLM,[1],0.817
same,CLint scaled at 1 µM,"[2]; microsomes, pH 7.4, NADPH_HLM_scaled_CLint,u",46.5 mL/min/kg
same,logD,[3],1.98
same,CLint scaled at 1 µM,"[6]; microsomes, pH 7.4",8.09 mL/min/kg
same,"Papp at 2 h, 10 µM",[7],31.7 ×10⁻⁶ cm/s
C[C@]12CCC(=O)C=C1CC[C@@H]1[C@@H]2[C@@H](O)C[C@@]2(C)[C@H]1CC[C@]2(O)C(=O)CO [hydrocortisone],"Scaled HH CLint,u",human hepatocytes (HH); [10],16.444 mL/min/kg and 19.1349 mL/min/kg
same,CLint scaled,in vitro [4]; [11],19.3 mL/min/kg
same,CLint scaled,in vitro [4]; [12],22.4 mL/min/kg
same,"HLM/HH (ratio of scaled CLint,u)",[2]; Fig. 1,2.834
same,"Scaled HLM CLint,u",[2]; [13],57.5167 mL/min/kg and 51.9108 mL/min/kg
same,CLint scaled at 1 µM,[2]; [14],54.9 mL/min/kg
same,CLint scaled at 1 µM,[2]; [15],54.8 mL/min/kg
AZ23,HH_CLint,human hepatocytes (HH); 1 µM,3.309 uL/min/106 cells
same,"HH_scaled_CLint,u",human hepatocytes (HH),14.4518 mL/min/kg
same,fu_ratHH,rat hepatocytes,0.577
same,fu_HLM,[1],0.583
same,HLM_NADPH CLint,[2]; [8],56.607 µL/min/mg
same,"NADPH_HLM_scaled_CLint,u","[2]; Fig. 4a,d",91.7558 mL/min/kg
same,LogD pH 7.4,[3],3.08
same,HLM_NADH CLint,[6]; [8],6.34 µL/min/mg
same,"NADH_HLM_scaled_CLint,u","[6]; Fig. 4a,d",10.2767 mL/min/kg
same,Caco-2 Papp,Caco-2 cells,66.417 10-6 cm/s
